“Also recorded” adds a separate entry of the source.

A short description of data set [1]: 3-point bending test and microCT of femurs of 3AC treated mice. The class given is in vivo. The procedure: Mouse femurs were cleaned, wrapped in PBS-soaked gauze and frozen at […]. Femurs were rehydrated in a PBS solution at room temperature for 2 hours before testing. We employed a 3-point-bending test to assay the biomechanical properties of femurs treated with the 3AC inhibitor. Femurs were placed into a testing frame (1250 N Load Cell and a Q Test 1/L, MTS Systems Corp, Eden Prairie, Minn.), pre-loaded with 1 N and then loaded at 1 N/mm until failure. Prior to testing femurs were scanned using microCT to assay the geometric properties.

Another data set relates to MIR cell. The data set can be described thus: MIR cell induction in treated mice. The conditions noted are these: in vivo, mice. As for the experimental part:
[Moto bene: DRV-IV-26=3A5AS].
The solubility of 3AC was assessed by calculating the distribution coefficient (CLogD). This calculation estimates the CLogD for 3AC at 7.17 indicating the molecule is very lipophilic. Thus, we have begun to develop novel 3AC analogs with increased aqueous solubility. One of these compounds, 3A5AS, has a CLogD of 3.33. Lipinski's rules (a common measure of small molecule pharmacokinetics) recommend a ClogD of <5 for in vivo applications.

A short description of data set [2]: 3AC treatment of aged C57BL/6 mice, fasting blood glucose and insulin. In kind it is in vivo. As to conditions: after 1 month treatment. As for the experimental part: We noted that mutation of the SHIP1 paralog, SHIP2, also promotes resistance to diet-induced obesity and diabetes^2 We hypothesized then that treatment of adult or aging mice with a pan-SHIP1/2 inhibitor, 3AC^3,4, (SHIPi) might reduce body fat content. This was then tested by pulsatile SHIPi treatment of aged C57BL/6 mice that have begun to accumulate excess body fat and then assessing their body fat content via whole body DEXA imaging. […] This analysis confirmed that small molecule targetting of SHIP1/2 in vivo is a feasible approach to reverse the accumulation of excess body fat and glucose homeostasis during aging.

Data set [3] is described as follows: 3AC treatment of adult C57BL6/J mice (DEXA, microCT, serum ELISA). In kind it is in vivo. As to conditions: vs vehicle, hydrochloride.
The conditions of data set [4]: cited reference 3 of Example 22; cited from earlier work.

As to `CC(C)CCC[C@@H](C)[C@H]1CC[C@H]2[C@@H]3CCC4C[C@H](N)CC[C@]4(C)[C@H]3CC[C@]12C.Cl` (stereo partly drawn) [3AC, 3α-Aminocholestane hydrochloride], in data set [1] (3-point bend), the energy to fracture result is on record as “not observed to be significantly different” and the energy to peak result is “not observed to be significantly different”. Further, in data set [1] (femurs of 3AC treated mice, 3-point bend, p<0.01), the “decrease in the peak load” value came out at 15.4%. In addition, in data set [1] (femurs of 3AC treated mice, 3-point bend, p<0.04), the “decrease in the stiffness” value turned out to be 21.6%. Also, the “cortical thickness in the femurs” value in data set [1] (mid-shaft microCT) was “significant decreases”. Besides, the “concentration inducing a comparable MIR cell increase” value in the data set on MIR cell came to 60 µM. Besides, in data set [2], the fasting blood glucose entry is “significant decrease” and the insulin result is reported as “significant decrease”. Moreover, in data set [3] (DEXA, 25 mg/kg i.p. three times per week, 4, 8 and 16 weeks, 25 mg/kg), the “whole-body BMD” value is “significantly reduces; also recorded: Significant decrease”. The percent body fat entry in data set [3] (DEXA, aging mice, 25 mg/kg three times per week, 25 mg/kg) was “significantly reduced; also recorded: Significant decrease”. In data set [3] (ELISA), the “serum OPG” value is listed as “significantly increases; also recorded: increased” and the “serum RANKL” value is given as “decreased”. Moreover, the “bone mass (Bv/Tv)” value in data set [3] (microCT metaphysis, 25 mg/kg i.p. three times per week, 25 mg/kg) is on record as “significantly reduces; also recorded: significantly decreased”. Besides, the aqueous solubility entry in data set [4] is reported as “poor aqueous solubility”.

Values taken from patent publication US20200376005A1, “SHIP INHIBITION TO COMBAT OBESITY” (THE RESEARCH FOUNDATION FOR THE STATE UNIVERSITY OF NEW YORK, priority 2013, published 2020).
